Test results reported in patent US9006450B2 (Boehringer Ingelheim International GmbH, priority 2010, dated 2015).
pIC50: −log10 of the molar value.

target: T1, human ACC2 (Homo sapiens, UniProt O00763); experiment: ACC2 assay, spectrophotometric 384 well assay (NADH-linked, coupled lactate dehydrogenase/pyruvate kinase); assay type: biochemical; conditions: ACC2 assay, hACC2 construct lacking 128 N-terminal amino acids, 25° C., 340 nm; read-out: IC50
T1 construct: made in house; host or cells: insect cells (baculoviral expression system)
T1 sequence (O00763 129-2458 limits assumed): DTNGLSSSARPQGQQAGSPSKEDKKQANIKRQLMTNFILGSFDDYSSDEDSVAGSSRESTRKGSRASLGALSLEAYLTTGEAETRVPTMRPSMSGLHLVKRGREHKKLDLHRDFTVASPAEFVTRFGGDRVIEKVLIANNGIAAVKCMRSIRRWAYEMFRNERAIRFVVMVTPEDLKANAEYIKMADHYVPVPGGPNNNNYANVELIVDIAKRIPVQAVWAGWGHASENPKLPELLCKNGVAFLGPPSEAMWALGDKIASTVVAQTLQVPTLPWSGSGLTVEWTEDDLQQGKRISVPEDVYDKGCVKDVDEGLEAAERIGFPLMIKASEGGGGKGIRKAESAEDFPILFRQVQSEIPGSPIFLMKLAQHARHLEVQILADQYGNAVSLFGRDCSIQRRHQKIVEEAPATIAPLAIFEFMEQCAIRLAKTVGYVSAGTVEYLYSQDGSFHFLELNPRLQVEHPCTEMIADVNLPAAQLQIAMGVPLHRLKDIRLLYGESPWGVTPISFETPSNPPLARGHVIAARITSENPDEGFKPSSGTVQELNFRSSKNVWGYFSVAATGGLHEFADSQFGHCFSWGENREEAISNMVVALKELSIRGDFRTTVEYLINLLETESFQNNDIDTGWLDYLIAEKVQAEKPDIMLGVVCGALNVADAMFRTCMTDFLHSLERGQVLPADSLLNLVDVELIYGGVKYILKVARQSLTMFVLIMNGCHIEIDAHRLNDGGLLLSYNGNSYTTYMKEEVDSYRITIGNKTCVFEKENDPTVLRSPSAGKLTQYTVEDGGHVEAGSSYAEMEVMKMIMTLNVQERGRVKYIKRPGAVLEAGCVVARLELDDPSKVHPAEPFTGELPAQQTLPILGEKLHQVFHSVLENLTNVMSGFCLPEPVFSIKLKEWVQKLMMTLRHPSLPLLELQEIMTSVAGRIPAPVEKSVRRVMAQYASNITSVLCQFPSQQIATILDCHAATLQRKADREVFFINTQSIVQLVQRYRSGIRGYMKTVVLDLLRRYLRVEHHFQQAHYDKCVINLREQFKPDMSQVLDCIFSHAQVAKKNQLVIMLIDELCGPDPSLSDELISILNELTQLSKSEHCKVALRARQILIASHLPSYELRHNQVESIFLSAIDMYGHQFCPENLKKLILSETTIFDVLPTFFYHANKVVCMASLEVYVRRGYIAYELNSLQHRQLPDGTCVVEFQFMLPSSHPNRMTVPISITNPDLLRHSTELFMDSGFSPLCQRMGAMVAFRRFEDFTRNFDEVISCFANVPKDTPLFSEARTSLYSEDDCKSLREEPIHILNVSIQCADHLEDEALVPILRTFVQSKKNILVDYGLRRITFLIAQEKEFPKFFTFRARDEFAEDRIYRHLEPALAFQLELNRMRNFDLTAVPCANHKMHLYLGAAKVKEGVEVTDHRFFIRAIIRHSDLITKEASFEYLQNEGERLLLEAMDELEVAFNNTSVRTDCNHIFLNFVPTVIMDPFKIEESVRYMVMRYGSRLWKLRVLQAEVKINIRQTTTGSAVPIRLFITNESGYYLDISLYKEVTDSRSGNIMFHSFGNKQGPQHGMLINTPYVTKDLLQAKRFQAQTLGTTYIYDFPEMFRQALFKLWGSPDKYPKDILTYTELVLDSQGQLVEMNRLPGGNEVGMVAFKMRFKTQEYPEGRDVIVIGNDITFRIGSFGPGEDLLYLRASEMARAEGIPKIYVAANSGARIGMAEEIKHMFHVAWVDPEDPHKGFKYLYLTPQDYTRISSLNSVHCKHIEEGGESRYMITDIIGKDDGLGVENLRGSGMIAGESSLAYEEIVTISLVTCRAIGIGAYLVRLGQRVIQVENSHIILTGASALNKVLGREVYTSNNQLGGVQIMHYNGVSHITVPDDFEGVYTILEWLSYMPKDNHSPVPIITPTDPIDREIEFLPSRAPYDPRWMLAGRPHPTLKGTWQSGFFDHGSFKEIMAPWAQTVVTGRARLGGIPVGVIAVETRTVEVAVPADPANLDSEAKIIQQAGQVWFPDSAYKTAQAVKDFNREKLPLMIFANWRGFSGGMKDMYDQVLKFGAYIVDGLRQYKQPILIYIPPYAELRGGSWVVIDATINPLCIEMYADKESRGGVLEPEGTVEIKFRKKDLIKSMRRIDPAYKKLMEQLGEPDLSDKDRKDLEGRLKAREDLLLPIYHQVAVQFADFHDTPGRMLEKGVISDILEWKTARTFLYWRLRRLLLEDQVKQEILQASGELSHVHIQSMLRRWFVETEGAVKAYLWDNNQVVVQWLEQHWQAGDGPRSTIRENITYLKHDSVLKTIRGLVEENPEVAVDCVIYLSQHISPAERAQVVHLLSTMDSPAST
Outline: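 ADP output tracked via pyruvate kinase/lactate dehydrogenase NADH oxidation, slope at 340 nm over 15 min, 25° C, with 500 μM ATP and 200 μM each acetyl-CoA and NADH. Enzyme: insect-cell-expressed human ACC2, N-terminal 128 residues deleted; pH 7.5 Tris with citrate, KHCO3. IC50 from four-parameter regression versus vehicle and no-acetyl-CoA controls.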

pIC50 | SMILES
5.55 | CC(=O)N[C@@H](C)c1ccc(C2CCN(c3cc(NC4CCC4)ncn3)CC2)cc1 [Example 11.46]
6.28 | CCOc1ccc(N2CCC(c3ccc([C@H](C)NC(=O)N(C)CCc4cn[nH]c4)cc3)CC2)cc1 [Example 14.61]
6.89 | CC(=O)N[C@@H](C)c1ccc(C2CCN(c3cccc(OC4CCCCC4)c3)CC2)cc1 [Example 9.6]
6.52 | CCOc1ccc(N2CCC(c3ccc([C@H](C)NC(C)=O)cc3)CC2)cc1Cl [Example 8.61]
5.72 | CC(=O)N[C@@H](C)c1ccc(C2CCN(c3ncc(C(=O)NC4CC4)cn3)CC2)cc1 [Example 18.5]
6.09 | CCC(CC)Oc1cc(N2CCC(c3ccc([C@H](C)NC(C)=O)cc3)CC2)ncn1 [Example 11.22]
7.15 | CC(=O)N[C@@H](C)c1ccc(C2CCN(c3ncc(-c4ccc(C#N)cc4)cn3)CC2)cc1 [Example 10.10]
6.70 | CC#CCOc1cccc(N2CCC(c3ccc([C@H](C)NC(C)=O)cc3)CC2)c1 [Example 9.8]
5.27 | CCOc1ccc(N2CCC(c3ccc([C@H](C)NC(=O)CN)cc3)CC2)cc1 [Example 35.1, (S)-2-Amino-N-(1-{4-[1-(4-ethoxyphenyl)piperidin-4-yl]phenyl}ethyl)acetamide]
6.57 | CC(=O)N[C@@H](C)c1ccc(C2CCN(c3cccc(OCCOC4CC4)c3)CC2)cc1 [Example 9.14]
5.54 | CC(=O)N[C@@H](C)c1ccc(C2CCN(c3cc(-c4ccc(C#N)s4)ncn3)CC2)cc1 [Example 22.8]
7.10 | C[C@H](NC(=O)C1CC1)c1ccc(C2CCN(c3ncc(-c4ccc(F)cc4)cn3)CC2)cc1 [Example 10.101]
6.06 | CC#CCOc1cc(N2CCC(c3ccc([C@H](C)NC(C)=O)cc3)CC2)ncn1 [Example 11.19]
6.48 | CC(=O)N[C@@H](C)c1ccc(C2CCN(c3ccnc(OC4CCOCC4)c3)CC2)cc1 [Example 19.17]
5.51 | CCOc1ccc(-c2cc(N3CCC(c4ccc([C@H](C)NC(C)=O)cc4)CC3)ncn2)cc1 [Example 22.9]
6.64 | CC(=O)N[C@@H](C)c1ccc(C2CCN(c3ccnc(OCC4(C#N)CC4)c3)CC2)cc1 [Example 19.28]
5.72 | CC(=O)N[C@@H](C)c1ccc(C2CCN(c3ncc(-c4cnc(C#N)nc4)cn3)CC2)cc1 [Example 10.83]
7.30 | CC(=O)N[C@@H](C)c1ccc(C2CCN(c3ncc(-c4ccc(F)c(C#N)c4)cn3)CC2)cc1 [Example 10.50]
6.08 | CC(=O)N[C@@H](C)c1ccc(C2CCN(c3ccc(OCC(C)C)c(C)c3)CC2)cc1 [Example 8.26]
5.33 | CC(=O)N[C@@H](C)c1ccc(C2CCN(c3cc(NCC(C)C)ncn3)CC2)cc1 [Example 11.65]
6.10 | CCOc1ccc(N2CCC(c3ccc([C@H](C)NC(=O)Nc4ccon4)cc3)CC2)cc1 [Example 14.70]
5.14 | CC(=O)N[C@@H](C)c1ccc(C2CCN(c3ncc(C(=O)Nc4ccccn4)cn3)CC2)cc1 [Example 18.15]
5.28 | CC(=O)N[C@@H](C)c1ccc(C2CCN(c3ncc(C(=O)NC4CC4(F)F)cn3)CC2)cc1 (stereo partly shown) [Example 18.30]
5.80 | CCOc1ccc(N2CCC(c3ccc([C@H](C)NC(=O)N4CCOCC4)cc3)CC2)cc1 [Example 14.63]

pIC50 | SMILES
4.61 | CC(=O)N[C@@H](C)c1ccc(C2CCN(c3ncc(C(=O)N[C@H]4C[C@H](N)C4)cn3)CC2)cc1 [Example 18.74]
6.38 | CC(=O)N[C@@H](C)c1ccc(C2CCN(c3ncc(-c4cccc(CC#N)c4)cn3)CC2)cc1 [Example 10.123]
4.57 | CC(=O)N[C@@H](C)c1ccc(C2CCN(c3ncc(C(=O)NCCC#N)cn3)CC2)cc1 [Example 18.80]
4.90 | CC(=O)N[C@@H](C)c1ccc(C2CCN(c3ncc(C(=O)Nc4cc(C)on4)cn3)CC2)cc1 [Example 18.78]
5.14 | CC(=O)N[C@@H](C)c1ccc(C2CCN(c3ncc(C(=O)N[C@H]4CCOC4)cn3)CC2)cc1 [Example 18.35]
5.64 | CC(=O)N[C@@H](C)c1ccc(C2CCN(c3ccc(OC4CCC4)c(C#N)c3)CC2)cc1 [Example 8.12]
6.80 | CC(=O)N[C@@H](C)c1ccc(C2CCN(c3ccc(-c4cccs4)nc3)CC2)cc1 [Example 15.11]
6.54 | CCCOc1cnc(N2CCC(c3ccc([C@H](C)NC(C)=O)cc3)CC2)cn1 [Example 8.8]
6.82 | CC(=O)N[C@@H](C)c1ccc(C2CCN(c3ncc(-c4ccc(C#N)nc4)cn3)CC2)cc1 [Example 10.82]
6.74 | CC(=O)N[C@@H](C)c1ccc(C2CCN(c3ncc(-c4ccc5nccnc5c4)cn3)CC2)cc1 [Example 10.73]
4.75 | COCCNc1nccc(N2CCC(c3ccc([C@H](C)NC(C)=O)cc3)CC2)n1 [Example 11.64]
7.30 | CC(=O)N[C@@H](C)c1ccc(C2CCN(c3ncc(-c4ccc5sccc5c4)cn3)CC2)cc1 [Example 10.75]
6.96 | CC(=O)N[C@@H](C)c1ccc(C2CCN(c3ccnc(OCC(F)F)c3)CC2)cc1 [Example 19.19]
5.82 | CCN(C(C)=O)[C@@H](C)c1ccc(C2CCN(c3ccc(OCC4CC4)cc3)CC2)cc1 [Example 39.2]
6.37 | COc1cc(N2CCC(c3ccc([C@H](C)NC(C)=O)cc3)CC2)ccc1OCC1CCC1 [Example 9.43]
6.72 | COc1ccc(-c2cnc(N3CCC(c4ccc([C@H](C)NC(C)=O)cc4)CC3)nc2)c(F)c1 [Example 10.37]
5.49 | CC(=O)N[C@@H](C)c1ccc(C2CCN(c3ccnc(NCCF)n3)CC2)cc1 [Example 11.102]
6.24 | CCOc1cc(N2CCC(c3ccc([C@H](C)NC(C)=O)cc3)CC2)ncn1 [Example 11.36]
6.38 | COc1cccc(NC(=O)c2cnc(N3CCC(c4ccc([C@H](C)NC(C)=O)cc4)CC3)nc2)c1 [Example 18.12]
6.66 | CC(=O)N[C@@H](C)c1ccc(C2CCN(c3ccc(OCC/C=C/C4CC4)cc3)CC2)cc1 [Example 8.65]
4.54 | CC(=O)N[C@@H](C)c1ccc(C2CCN(c3ncc(C(=O)NCCCO)cn3)CC2)cc1 [Example 18.47]
5.06 | COCCNC(=O)c1cnc(N2CCC(c3ccc([C@H](C)NC(C)=O)cc3)CC2)nc1 [Example 18.55]
5.89 | CC#CCOc1nccc(N2CCC(c3ccc([C@H](C)NC(C)=O)cc3)CC2)n1 [Example 11.20]
5.52 | CCC(C)Oc1ccc(N2CCC(c3ccc([C@H](C)NC(C)=O)cc3)CC2)cc1C#N (stereo partly shown) [Example 8.52]

Further lines, the compound ahead of its results:

SMILES | pIC50
COC(=O)N[C@@H](C)c1ccc(C2CCN(c3ccc(OC4CC4)cc3)CC2)cc1 [Example 1.113] | 6.85
CC(=O)N[C@@H](C)c1ccc(C2CCN(c3nc4ccc(C)cc4s3)CC2)cc1 [Example 5.56] | 5.92
COCCOc1ccc(N2CCC(c3ccc([C@H](C)NC(C)=O)cc3)CC2)c(F)c1 [Example 1.97] | 6.28
CC(=O)N[C@@H](C)c1ccc(C2CCN(c3ccc(Oc4ccccc4)nc3)CC2)cc1 [Example 3.1, (S)—N-{1-[4-(6′-Phenoxy-3,4,5,6-tetrahydro-2H-1,3′]bipyridinyl-4-yl)-phenyl′-ethyl}-acetamide] | 6.44
CCOc1ccc(N2CCC(c3ccc([C@H](C)NC(=O)N(C)C)cc3)CC2)nc1 [Example 1.179] | 6.51
CCOc1ccc(N2CCC(c3ccc([C@H](C)NC(=O)N(C)C)cc3)CC2)c(F)c1 [Example 1.85] | 6.85
Cc1cc(OC2CC2)ccc1N1CCC(c2ccc([C@H](C)NC(=O)N(C)C)cc2)CC1 [Example 1.57] | 7.00
CCC(=O)N[C@@H](C)c1ccc(C2CCN(c3ccc4c(c3)OCCO4)CC2)cc1 [Example 1.146] | 5.96
CC(=O)N[C@@H](C)c1ccc(C2CCN(c3cc(C)c4ccccc4n3)CC2)cc1 [Example 4.4] | 5.74
COc1cc(OC2CC2)ccc1N1CCC(c2ccc([C@H](C)NC(=O)C3CC3)cc2)CC1 [Example 1.93] | 6.24
CCOc1ccc(N2CCC(c3ccc([C@H](C)NC(=O)CCC#N)cc3)CC2)cc1 [Example 6.39] | 5.89
CCOc1ccc(N2CCC(c3ccc([C@H](C)NC(=O)C4CC4)cc3)CC2)c(F)c1 [Example 1.82] | 6.80
CCCOc1ccc(N2CCC(c3ccc([C@H](C)NC(=O)N(C)C)cc3)CC2)cc1 [Example 1.8] | 6.92
CCOc1ccc(N2CCC(c3ccc([C@H](C)NC(=O)c4ncn[nH]4)cc3)CC2)cc1 [Example 6.41] | 5.39
CC(=O)N[C@@H](C)c1ccc(C2CCN(c3ccc(OCc4ccoc4)cc3)CC2)cc1 [Example 1.186] | 6.77
CC(=O)N[C@@H](C)c1ccc(C2CCN(c3ccc(OCC(C)C)cn3)CC2)cc1 [Example 5.4] | 7.05
CCOc1ccc(N2CCC(c3ccc([C@H](C)NC(=O)C4(C)COC4)cc3)CC2)cc1 [Example 6.27] | 5.32
CC(=O)N[C@@H](C)c1ccc(C2CCN(c3ccc(OCC(F)F)cc3)CC2)cc1 [Example 1.164] | 6.11
COc1ccc(-c2cnc(N3CCC(c4ccc([C@H](C)NC(C)=O)cc4)CC3)nc2)cc1 [Example 4.41] | 7.00
CCOc1ccc(N2CCC(c3ccc([C@H](C)NC(=O)c4cncs4)cc3)CC2)cc1 [Example 6.11] | 6.47
CC(=O)N[C@@H](C)c1ccc(C2CCN(c3ncc(Cl)cn3)CC2)cc1 [Example 4.29] | 5.77
CCC(NC(C)=O)c1ccc(C2CCN(c3ccc(OC4CC4)cc3)CC2)cc1 (stereo not shown) [Example 1.204] | 6.35
CCOc1ccc(N2CCC(c3ccc([C@H](C)NC(=O)OC)cc3)CC2)c(F)c1 [Example 1.170] | 6.40
CCOc1ccc(N2CCC(c3ccc([C@H](C)NC(=O)c4ccncc4)cc3)CC2)cc1 [Example 6.40] | 5.92
CCOc1cnc(N2CCC(c3ccc([C@H](C)NC(C)=O)cc3)CC2)c(F)c1 [Example 1.100] | 6.28
